Measured values taken from patent publication US9708316B2 (BRISTOL-MYERS SQUIBB COMPANY, priority 2014, dated 2017).

Legend:
[1] = molecular target: T1, HIS-TGFβR1 T204D (Homo sapiens, UniProt P36897, T204D); test: HTRF probe-displacement assay, HIS-TGFβR1 T204D; type: binding; conditions: read-out: TGFβR1 (μM) IC50
T1 sequence (P36897 34-503 T204D): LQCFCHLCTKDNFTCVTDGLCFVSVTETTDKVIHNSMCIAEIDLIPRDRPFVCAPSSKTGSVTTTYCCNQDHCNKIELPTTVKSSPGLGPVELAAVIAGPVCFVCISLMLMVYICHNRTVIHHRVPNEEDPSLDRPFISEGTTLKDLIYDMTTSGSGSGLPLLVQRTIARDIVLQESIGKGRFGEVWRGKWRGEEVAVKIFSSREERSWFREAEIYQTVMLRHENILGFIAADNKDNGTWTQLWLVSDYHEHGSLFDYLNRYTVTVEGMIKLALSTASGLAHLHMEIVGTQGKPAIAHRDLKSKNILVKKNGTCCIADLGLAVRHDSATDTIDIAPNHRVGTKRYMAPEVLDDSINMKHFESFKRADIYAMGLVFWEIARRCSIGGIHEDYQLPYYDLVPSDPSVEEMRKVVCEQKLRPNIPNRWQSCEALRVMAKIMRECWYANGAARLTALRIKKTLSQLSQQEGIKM

[2] = molecular target: HIS-TGFβR2 WT (Homo sapiens, UniProt P37173); test: HTRF probe-displacement assay, HIS-TGFβR2 WT; type: binding
Chain of HIS-TGFβR2 WT (P37173 23-567): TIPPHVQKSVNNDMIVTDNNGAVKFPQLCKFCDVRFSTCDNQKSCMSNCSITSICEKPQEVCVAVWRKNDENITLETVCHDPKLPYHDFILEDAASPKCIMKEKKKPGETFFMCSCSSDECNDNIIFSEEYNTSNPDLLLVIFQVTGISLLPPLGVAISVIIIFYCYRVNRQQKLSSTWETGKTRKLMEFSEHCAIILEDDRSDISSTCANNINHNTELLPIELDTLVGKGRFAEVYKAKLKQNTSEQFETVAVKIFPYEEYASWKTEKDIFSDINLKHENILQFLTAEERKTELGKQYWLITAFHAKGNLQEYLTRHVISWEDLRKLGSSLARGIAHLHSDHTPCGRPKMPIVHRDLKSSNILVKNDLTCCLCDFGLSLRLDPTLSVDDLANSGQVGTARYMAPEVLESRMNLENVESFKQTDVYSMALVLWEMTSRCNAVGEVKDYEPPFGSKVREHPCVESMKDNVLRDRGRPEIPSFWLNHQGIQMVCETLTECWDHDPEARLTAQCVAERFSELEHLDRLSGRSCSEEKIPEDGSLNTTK

SMILES | IC50 [1] [µM] | IC50 [2] [µM]
CCOc1cccc(-c2c(-c3ccnc(NC(C)=O)c3)[nH]c3cc(Cl)cnc23)n1 [Example 256, N-(4-(6-Chloro-3-(6-ethoxypyridin-2-yl)-1H-pyrrolo[3,2-b]pyridin-2-yl)pyridin-2-yl)acetamide] | 0.02 | > 15
COC(=O)Nc1cc(-c2[nH]c3cc(Cl)cnc3c2-c2ccc(F)cn2)ccn1 [Example 85, Methyl N-{4-[6-chloro-3-(5-fluoropyridin-2-yl)-1H-pyrrolo[3,2-b]pyridin-2-yl]pyridin-2-yl}carbamate] | 0.01 | 4.05
CC(=O)Nc1cc(-c2[nH]c3cc(Cl)cnc3c2-c2nc(C)ns2)ccn1 [Example 179, N-(4-(6-chloro-3-(3-methyl-1,2,4-thiadiazol-5-yl)-1H-pyrrolo[3,2-b]pyrdin-2-yl)pyridin-2-yl)acetamide] | 0.058 | > 15
COc1ccc(-c2c(-c3ccnc(NC(C)=O)c3)[nH]c3c(C(O)C(C)C)ccnc23)cn1 (centres unmarked) [Example 300, N-(4-(7-(1-Hydroxy-2-methylpropyl)-3-(6-methoxypyridin-3-yl)-1H-pyrrolo[3,2-b]pyridin-2-yl)pyridin-2-yl)acetamide] | 0.003 | 0.017
C[C@H](O)C(=O)Nc1cc(-c2[nH]c3cc(Cl)cnc3c2-c2ccc(F)cn2)ccn1 [Example 73] | 0.019 | 15.5
COc1ccc(-c2c(-c3ccnc(NC(=O)C4CC4)c3)[nH]c3cccnc23)cn1 [Example 53, N-{4-[3-(6-Methoxypyridin-3-yl)-1H-pyrrolo[3,2-b]pyridin-2-yl]pyridin-2-yl}cyclopropanecarboxamide] | 0.002 | 0.005
CC(=O)Nc1cc(-c2[nH]c3ccc(F)nc3c2-c2cccc(Cl)n2)ccn1 [Example 34, N-{4-[3-(6-Chloropyridin-2-yl)-5-fluoro-1H-pyrrolo[3,2-b]pyridin-2-yl]pyridin-2-yl}acetamide] | 0.002 | 0.13
CNCc1ccnc2c(-c3cccc(C(F)F)n3)c(-c3ccnc(NC(C)=O)c3)[nH]c12 [Example 151, N-(4-{3-[6-(Difluoromethyl)pyridin-2-yl]-7-[(methylamino)methyl]-1H-pyrrolo[3,2-b]pyridin-2-yl}pyridin-2-yl)acetamide] | 0.01 | > 15
CC(=O)Nc1cc(-c2[nH]c3cccnc3c2-c2ccc(F)c(C(F)F)n2)ccn1 [Example 193, N-(4-(3-(6-(Difluoromethyl)-5-fluoropyridin-2-yl)-1H-pyrrolo[3,2-b]pyridin-2-yl)pyridin-2-yl)acetamide] | 0.0006 | > 15
COc1ccc(-c2c(-c3ccnc(NC(=O)CN4CCOCC4)c3)[nH]c3cccnc23)cn1 [Example 286, N-(4-(3-(6-Methoxypyridin-3-yl)-1H-pyrrolo[3,2-b]pyridin-2-yl)pyridin-2-yl)-2-morpholinoacetamide] | 0.001 | 0.253
CC(=O)Nc1cc(-c2[nH]c3cccnc3c2-c2ccc(C#N)s2)ccn1 [Example 188, N-(4-(3-(5-Cyanothiophen-2-yl)-1H-pyrrolo[3,2-b]pyridin-2-yl)pyridin-2-yl)acetamide] | 0.0104 | 0.24
COc1cnc2c(-c3cccc(C(F)F)n3)c(-c3ccnc(NC(C)=O)c3)[nH]c2c1 [Example 282, N-(4-(3-(6-(Difluoromethyl)pyridin-2-yl)-6-methoxy-1H-pyrrolo[3,2-b]pyridin-2-yl)pyridin-2-yl)acetamide] | 0.001 | 1.85
COc1ccc(-c2c(-c3ccnc(NC(C)=O)c3)[nH]c3cc(N4CCC(CO)CC4)cnc23)nc1 [Example 161, N-(4-(6-(4-(Hydroxymethyl)piperidin-l-yl)-3-(5-methoxypyridin-2-yl)-1H-pyrrolo[3,2-b]pyridin-2-yl)pyridin-2-yl)acetamide] | 0.0126 | > 15
COc1ccnc(-c2c(-c3ccnc(NC(C)=O)c3)[nH]c3cccnc23)c1 [Example 28, N-{4-[3-(4-Methoxypyridin-2-yl)-1H-pyrrolo[3,2-b]pyridin-2-yl]pyridin-2-yl}acetamide] | 0.2 | 6.05
CC(=O)Nc1cc(-c2[nH]c3c([C@@H](C)O)ccnc3c2-c2cccc(C(F)F)n2)ccn1 (single isomer, unassigned) [Example 146] | 0.001 | 1.78
COc1ccc(-c2c(-c3ccnc(NC(C)=O)c3)[nH]c3cc(N4CCOCC4)cnc23)nc1 [Example 164, N-(4-(3-(5-Methoxypyridin-2-yl)-6-morpholino-1H-pyrrolo[3,2-b]pyridin-2-yl)pyridin-2-yl)acetamide] | 0.0053 | > 15
COCC(C)Oc1cnc2c(-c3ccc(OC)cn3)c(-c3ccnc(NC(C)=O)c3)[nH]c2c1 (centres unmarked) [Example 97, N-(4-(6-((1-Methoxypropan-2-yl)oxy)-3-(5-methoxypyridin-2-yl)-1H-pyrrolo[3,2-b]pyridin-2-yl)pyridin-2-yl)acetamide] | 0.001 | > 15
CC(=O)Nc1cc(-c2[nH]c3c(C4CCOCC4)ccnc3c2-c2cccc(C)n2)ccn1 [Example 136, N-{4-[3-(6-Methylpyridin-2-yl)-7-(oxan-4-yl)-1H-pyrrolo[3,2-b]pyridin-2-yl]pyridin-2-yl}acetamide] | 0.006 | > 15
COc1cnc2c(-c3ccc(OC(F)F)cn3)c(-c3ccnc(NC(C)=O)c3)[nH]c2c1 [Example 113, N-(4-(3-(5-(Difluoromethoxy)pyridin-2-yl)-6-methoxy-1H-pyrrolo[3,2-b]pyridin-2-yl)pyridin-2-yl)acetamide] | 0.003 | 14.6
CC(=O)Nc1cc(-c2[nH]c3cccnc3c2-c2cc(C)cc(Cl)n2)ccn1 [Example 30, N-{4-[3-(6-Chloro-4-methylpyridin-2-yl)-1H-pyrrolo[3,2-b]pyridin-2-yl]pyridin-2-yl}acetamide] | 0.32 | 0.49
COc1ccc(-c2c(-c3ccnc(NC(=O)CN4CCN(CCO)CC4)c3)[nH]c3cc(Cl)cnc23)nc1 [Example 252, N-(4-(6-Chloro-3-(5-methoxypyridin-2-yl)-1H-pyrrolo[3,2-b]pyridin-2-yl)pyridin-2-yl)-2-(4-(2-hydroxyethyl)piperazin-1-yl)acetamide] | 0.001 | > 15
CC(=O)Nc1cc(-c2[nH]c3c(C(C)O)ccnc3c2-c2cccc(Cl)n2)ccn1 (centres unmarked) [Example 263, N-(4-(3-(6-Chloropyridin-2-yl)-7-(1-hydroxyethyl)-1H-pyrrolo[3,2-b]pyridin-2-yl)pyridin-2-yl)acetamide] | 0.001 | 0.279
CC(=O)Nc1cc(-c2[nH]c3cc(Cl)cnc3c2-c2cc(C)c(F)cn2)ccn1 [Example 44, N-{4-[6-Chloro-3-(5-fluoro-4-methylpyridin-2-yl)-1H-pyrrolo[3,2-b]pyridin-2-yl]pyridin-2-yl}acetamide] | 0.027 | 0.34
CC(=O)Nc1cc(-c2[nH]c3cc(Cl)cnc3c2-c2nc(C)cs2)ccn1 [Example 176, N-(4-(6-Chloro-3-(4-methylthiazol-2-yl)-1H-pyrrolo[3,2-b]pyridin-2-yl)pyridin-2-yl)acetamide] | 0.0005 | 0.037
CC(=O)Nc1cc(-c2[nH]c3cc(F)cnc3c2-c2nc(C)cs2)ccn1 [Example 225, N-(4-(6-Fluoro-3-(4-methylthiazol-2-yl)-1H-pyrrolo[3,2-b]pyridin-2-yl)pyridin-2-yl)acetamide] | 0.0007 | 0.057
